# How the values were obtained:
# [1] = target: T1, Muscarinic acetylcholine receptor M2 (Homo sapiens, UniProt P08172); type: functional, cell-based
# T1 sequence (P08172 whole entry): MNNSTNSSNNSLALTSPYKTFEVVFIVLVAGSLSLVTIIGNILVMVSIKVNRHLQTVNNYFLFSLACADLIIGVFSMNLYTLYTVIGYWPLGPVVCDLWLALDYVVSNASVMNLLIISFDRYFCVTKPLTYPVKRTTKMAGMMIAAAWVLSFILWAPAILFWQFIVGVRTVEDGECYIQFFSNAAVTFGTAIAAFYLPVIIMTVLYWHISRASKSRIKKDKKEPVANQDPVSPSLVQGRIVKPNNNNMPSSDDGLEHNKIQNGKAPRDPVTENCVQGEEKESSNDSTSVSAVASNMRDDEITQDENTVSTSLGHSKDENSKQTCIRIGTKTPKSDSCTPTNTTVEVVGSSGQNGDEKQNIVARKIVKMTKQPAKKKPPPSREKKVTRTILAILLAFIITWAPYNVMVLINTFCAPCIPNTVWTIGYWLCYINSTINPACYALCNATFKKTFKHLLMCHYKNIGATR
# [2] = target: T2, Glucocorticoid receptor (Homo sapiens, UniProt P04150)
# T2 sequence (P04150 whole entry): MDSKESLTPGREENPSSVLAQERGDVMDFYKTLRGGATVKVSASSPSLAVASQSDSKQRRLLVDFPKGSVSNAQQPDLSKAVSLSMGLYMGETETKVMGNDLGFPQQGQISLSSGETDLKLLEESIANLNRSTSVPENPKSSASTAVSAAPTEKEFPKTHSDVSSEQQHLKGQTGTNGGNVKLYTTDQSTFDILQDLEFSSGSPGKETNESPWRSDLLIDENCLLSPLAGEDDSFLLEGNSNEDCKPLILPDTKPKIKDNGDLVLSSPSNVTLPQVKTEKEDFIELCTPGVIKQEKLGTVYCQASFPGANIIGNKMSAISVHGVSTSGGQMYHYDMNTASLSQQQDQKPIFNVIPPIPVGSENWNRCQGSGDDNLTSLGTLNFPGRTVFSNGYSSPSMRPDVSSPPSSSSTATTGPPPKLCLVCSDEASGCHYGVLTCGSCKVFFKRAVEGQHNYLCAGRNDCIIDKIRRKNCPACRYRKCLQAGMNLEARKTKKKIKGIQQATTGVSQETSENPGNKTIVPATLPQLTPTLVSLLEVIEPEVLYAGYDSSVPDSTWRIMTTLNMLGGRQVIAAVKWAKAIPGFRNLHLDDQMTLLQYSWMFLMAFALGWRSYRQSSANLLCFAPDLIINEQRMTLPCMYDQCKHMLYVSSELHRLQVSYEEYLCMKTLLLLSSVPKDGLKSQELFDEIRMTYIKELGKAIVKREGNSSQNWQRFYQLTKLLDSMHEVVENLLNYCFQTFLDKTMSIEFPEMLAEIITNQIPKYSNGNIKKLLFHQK
# [3] = target: Kappa-type opioid receptor (Homo sapiens, UniProt P41145)
# [4] = target: Voltage-dependent L-type calcium channel subunit alpha-1C (Rattus norvegicus, UniProt P22002); type: functional
# [5] = target: T3, Progesterone receptor (Homo sapiens, UniProt P06401); type: functional
# T3 sequence (P06401 whole entry): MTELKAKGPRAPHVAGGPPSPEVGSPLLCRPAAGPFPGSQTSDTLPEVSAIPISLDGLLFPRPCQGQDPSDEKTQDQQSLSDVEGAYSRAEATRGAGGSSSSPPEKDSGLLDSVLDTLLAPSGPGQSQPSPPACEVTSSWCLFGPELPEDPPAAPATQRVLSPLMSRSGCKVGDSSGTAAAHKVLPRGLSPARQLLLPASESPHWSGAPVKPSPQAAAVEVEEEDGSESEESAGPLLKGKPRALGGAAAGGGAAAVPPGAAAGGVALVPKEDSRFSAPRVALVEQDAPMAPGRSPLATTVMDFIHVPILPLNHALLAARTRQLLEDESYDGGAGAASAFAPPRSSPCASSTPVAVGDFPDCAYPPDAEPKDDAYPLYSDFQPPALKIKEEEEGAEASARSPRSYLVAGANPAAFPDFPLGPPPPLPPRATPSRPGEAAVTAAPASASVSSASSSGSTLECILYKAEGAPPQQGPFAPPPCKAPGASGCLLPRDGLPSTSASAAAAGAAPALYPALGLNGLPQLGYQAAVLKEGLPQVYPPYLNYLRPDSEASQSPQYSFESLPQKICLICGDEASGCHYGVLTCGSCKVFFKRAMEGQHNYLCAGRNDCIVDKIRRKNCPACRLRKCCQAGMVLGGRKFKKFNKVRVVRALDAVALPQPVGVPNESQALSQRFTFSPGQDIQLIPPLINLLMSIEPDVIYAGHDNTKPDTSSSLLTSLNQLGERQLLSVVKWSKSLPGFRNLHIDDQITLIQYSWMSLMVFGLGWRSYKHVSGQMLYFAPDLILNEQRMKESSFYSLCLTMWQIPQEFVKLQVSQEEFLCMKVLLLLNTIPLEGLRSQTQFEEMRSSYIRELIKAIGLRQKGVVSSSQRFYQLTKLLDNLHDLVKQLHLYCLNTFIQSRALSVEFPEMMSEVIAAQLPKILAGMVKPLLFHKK
# [6] = target: Sodium-dependent noradrenaline transporter (Homo sapiens, UniProt P23975)
# [7] = target: T4, Alpha-2B adrenergic receptor (Homo sapiens, UniProt P18089)
# T4 sequence (P18089 whole entry): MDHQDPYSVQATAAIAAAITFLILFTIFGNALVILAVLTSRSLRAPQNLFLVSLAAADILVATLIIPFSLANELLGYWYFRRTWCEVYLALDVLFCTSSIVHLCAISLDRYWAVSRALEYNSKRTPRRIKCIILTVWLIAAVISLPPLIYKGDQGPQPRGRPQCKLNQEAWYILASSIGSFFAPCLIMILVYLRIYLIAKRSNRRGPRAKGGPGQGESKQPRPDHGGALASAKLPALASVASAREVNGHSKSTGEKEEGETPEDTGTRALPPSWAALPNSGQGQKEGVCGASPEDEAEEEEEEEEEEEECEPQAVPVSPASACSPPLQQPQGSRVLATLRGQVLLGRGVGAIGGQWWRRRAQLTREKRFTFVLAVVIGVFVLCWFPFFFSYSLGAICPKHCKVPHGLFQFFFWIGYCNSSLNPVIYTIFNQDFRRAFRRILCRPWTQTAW
# Note: assay procedure not described here.
# Sequence of Sodium-dependent noradrenaline transporter (P23975 whole entry): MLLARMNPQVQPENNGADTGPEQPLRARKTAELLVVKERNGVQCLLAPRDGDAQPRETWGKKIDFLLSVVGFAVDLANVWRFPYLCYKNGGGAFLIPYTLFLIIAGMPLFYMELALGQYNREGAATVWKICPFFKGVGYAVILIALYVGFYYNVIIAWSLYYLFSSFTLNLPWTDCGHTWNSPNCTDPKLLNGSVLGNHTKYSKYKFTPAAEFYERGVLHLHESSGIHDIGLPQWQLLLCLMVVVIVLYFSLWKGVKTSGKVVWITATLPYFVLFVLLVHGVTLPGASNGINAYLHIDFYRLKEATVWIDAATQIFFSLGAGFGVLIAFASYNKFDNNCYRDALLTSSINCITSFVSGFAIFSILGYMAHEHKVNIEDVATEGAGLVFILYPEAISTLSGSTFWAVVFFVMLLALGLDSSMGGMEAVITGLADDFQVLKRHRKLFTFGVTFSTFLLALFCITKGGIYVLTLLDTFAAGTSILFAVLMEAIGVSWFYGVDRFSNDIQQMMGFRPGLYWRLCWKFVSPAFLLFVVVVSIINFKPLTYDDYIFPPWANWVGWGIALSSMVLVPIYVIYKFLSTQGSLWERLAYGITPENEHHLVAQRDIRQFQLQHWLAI
# Sequence of Voltage-dependent L-type calcium channel subunit alpha-1C (P22002 whole entry): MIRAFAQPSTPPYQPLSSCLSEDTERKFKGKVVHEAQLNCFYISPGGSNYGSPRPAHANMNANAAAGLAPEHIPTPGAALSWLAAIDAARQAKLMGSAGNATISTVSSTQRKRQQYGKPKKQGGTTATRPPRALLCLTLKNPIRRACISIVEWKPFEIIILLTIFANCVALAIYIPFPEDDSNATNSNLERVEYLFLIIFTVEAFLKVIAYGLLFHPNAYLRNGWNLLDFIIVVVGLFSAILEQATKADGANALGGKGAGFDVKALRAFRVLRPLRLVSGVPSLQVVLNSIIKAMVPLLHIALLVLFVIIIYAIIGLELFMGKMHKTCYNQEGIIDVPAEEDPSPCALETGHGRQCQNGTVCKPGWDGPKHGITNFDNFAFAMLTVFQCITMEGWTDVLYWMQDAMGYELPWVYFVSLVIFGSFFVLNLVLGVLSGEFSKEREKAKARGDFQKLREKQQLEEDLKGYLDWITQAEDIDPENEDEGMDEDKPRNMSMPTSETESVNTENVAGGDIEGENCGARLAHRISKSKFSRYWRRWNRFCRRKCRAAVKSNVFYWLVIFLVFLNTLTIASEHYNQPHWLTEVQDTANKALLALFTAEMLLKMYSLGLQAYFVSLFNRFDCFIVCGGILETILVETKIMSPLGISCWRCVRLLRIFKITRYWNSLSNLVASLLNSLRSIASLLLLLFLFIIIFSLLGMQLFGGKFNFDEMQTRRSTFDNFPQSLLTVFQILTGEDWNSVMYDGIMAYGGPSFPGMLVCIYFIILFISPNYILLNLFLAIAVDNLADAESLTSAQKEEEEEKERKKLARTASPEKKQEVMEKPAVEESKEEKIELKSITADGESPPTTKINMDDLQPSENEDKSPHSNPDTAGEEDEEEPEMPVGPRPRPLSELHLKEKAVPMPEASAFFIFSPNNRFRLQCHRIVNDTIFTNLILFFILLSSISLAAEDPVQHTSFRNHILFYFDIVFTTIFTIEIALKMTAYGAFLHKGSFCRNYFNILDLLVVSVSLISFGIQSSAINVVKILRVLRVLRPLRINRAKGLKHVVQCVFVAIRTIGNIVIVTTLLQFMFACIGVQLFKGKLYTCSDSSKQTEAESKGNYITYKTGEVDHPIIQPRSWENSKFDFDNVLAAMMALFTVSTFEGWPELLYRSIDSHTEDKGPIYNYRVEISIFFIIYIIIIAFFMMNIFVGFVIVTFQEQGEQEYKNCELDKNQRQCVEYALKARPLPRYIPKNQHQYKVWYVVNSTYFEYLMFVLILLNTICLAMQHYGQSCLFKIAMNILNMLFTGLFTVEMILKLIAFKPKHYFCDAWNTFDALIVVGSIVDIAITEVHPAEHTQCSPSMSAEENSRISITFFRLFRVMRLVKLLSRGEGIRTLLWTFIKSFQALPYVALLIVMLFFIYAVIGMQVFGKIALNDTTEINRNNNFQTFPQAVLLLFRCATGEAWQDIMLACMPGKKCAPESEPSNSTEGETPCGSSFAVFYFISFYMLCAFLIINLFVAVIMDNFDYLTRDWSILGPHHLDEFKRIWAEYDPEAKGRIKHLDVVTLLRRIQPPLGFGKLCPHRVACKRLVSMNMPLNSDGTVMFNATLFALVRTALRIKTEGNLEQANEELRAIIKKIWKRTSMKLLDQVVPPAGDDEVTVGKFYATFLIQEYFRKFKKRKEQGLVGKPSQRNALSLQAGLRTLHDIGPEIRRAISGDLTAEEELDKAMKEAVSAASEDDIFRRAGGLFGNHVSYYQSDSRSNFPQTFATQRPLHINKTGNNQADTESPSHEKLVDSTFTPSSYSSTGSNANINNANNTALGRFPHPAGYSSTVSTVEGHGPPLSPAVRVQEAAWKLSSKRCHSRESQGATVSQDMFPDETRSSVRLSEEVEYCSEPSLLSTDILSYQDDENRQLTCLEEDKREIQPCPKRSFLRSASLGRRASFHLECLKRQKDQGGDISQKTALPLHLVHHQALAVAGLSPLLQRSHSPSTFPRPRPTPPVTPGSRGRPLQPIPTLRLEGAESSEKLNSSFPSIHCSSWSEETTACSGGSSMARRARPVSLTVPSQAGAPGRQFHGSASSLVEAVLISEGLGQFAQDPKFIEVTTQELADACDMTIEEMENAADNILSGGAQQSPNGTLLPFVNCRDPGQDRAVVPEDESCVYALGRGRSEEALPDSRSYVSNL
# Sequence of Kappa-type opioid receptor (P41145 whole entry): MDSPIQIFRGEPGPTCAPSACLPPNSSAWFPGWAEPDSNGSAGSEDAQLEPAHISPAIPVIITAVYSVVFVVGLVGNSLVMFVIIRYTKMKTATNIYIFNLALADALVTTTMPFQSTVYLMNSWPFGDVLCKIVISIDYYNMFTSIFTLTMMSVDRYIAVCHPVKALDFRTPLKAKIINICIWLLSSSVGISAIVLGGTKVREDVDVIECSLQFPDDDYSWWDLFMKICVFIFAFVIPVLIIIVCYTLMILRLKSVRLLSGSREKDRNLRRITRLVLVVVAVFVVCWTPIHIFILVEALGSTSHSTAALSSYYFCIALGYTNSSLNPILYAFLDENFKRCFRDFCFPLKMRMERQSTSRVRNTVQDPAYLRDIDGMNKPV
SMILES,AC50 [1] [µM],AC50 [2] [µM],AC50 [3] [µM],AC50 [4] [µM],AC50 [5] [µM],AC50 [6] [µM],AC50 [7] [µM]
COc1cc2c(N)nc(N3CCN(C(=O)OCC(C)(C)O)CC3)nc2c(OC)c1OC [TRIMAZOSIN],> 30,> 30,> 30,> 30,> 30,> 30,> 30
COC(=O)[C@H]1[C@H]2C[C@@H]3c4[nH]c5cc(OC)ccc5c4CCN3C[C@H]2C[C@@H](OC(=O)/C=C/c2cc(OC)c(OC)c(OC)c2)[C@@H]1OC [RESCINNAMINE],> 10,> 10,> 30,5.16,> 10,> 30,> 10
COc1ccccc1OCCNCC(O)c1ccc(C)c(S(N)(=O)=O)c1 (stereo not given) [AMOSULALOL],> 30,> 30,> 30,> 30,> 30,> 30,6.9
O=C(O)C1=C(CSc2nnnn2CS(=O)(=O)O)CS[C@@H]2[C@H](NC(=O)[C@H](O)c3ccccc3)C(=O)N12 [CEFONICID],> 30,> 30,> 30,> 30,> 30,> 30,> 30
O=C(O)[C@H](CC(=O)N1C[C@H]2CCCC[C@H]2C1)Cc1ccccc1 [MITIGLINIDE],> 10,> 10,> 10,> 10,> 10,> 10,> 10
CC(=O)OCC(=O)[C@@]12N=C(C)O[C@@H]1C[C@H]1[C@@H]3CCC4=CC(=O)C=C[C@]4(C)[C@H]3[C@@H](O)C[C@@]12C [DEFLAZACORT],> 30,0.66,> 30,> 30,3.7,> 30,> 30
CC(Oc1c(Cl)cccc1Cl)C1=NCCN1 (stereo not given) [LOFEXIDINE],> 30,> 30,22,> 30,> 30,> 30,0.74
CC(C(=O)O)c1ccc(N2Cc3ccccc3C2=O)cc1 (stereo not given) [INDOPROFEN],> 30,> 30,> 30,> 30,16.8,> 30,> 30
CCC(C(=O)O)c1ccc(N2Cc3ccccc3C2=O)cc1 (stereo not given) [INDOBUFEN],> 30,> 30,> 30,> 30,> 30,> 30,> 30
CC1(C)O[C@@H]2C[C@H]3[C@@H]4CCC5=CC(=O)C=C[C@]5(C)[C@H]4[C@@H](O)C[C@]3(C)[C@]2(C(=O)CO)O1 [DESONIDE],> 10,0.016,> 10,> 10,0.065,> 10,> 10
C=CCN1CCCC1CNC(=O)c1cc(S(N)(=O)=O)cc(OC)c1OC (stereo not given) [VERALIPRIDE],> 30,> 30,> 30,> 30,> 30,> 30,3.2
COC(=O)C1=C(C)NC(C)=C(C(=O)OC(C)(C)CN(C)CCC(c2ccccc2)c2ccccc2)C1c1cccc([N+](=O)[O-])c1 (stereo not given) [LERCANIDIPINE],> 30,> 30,3.8,0.046,> 30,> 30,> 30
C[C@H](CSC(=O)c1ccccc1)C(=O)N1C[C@@H](Sc2ccccc2)C[C@H]1C(=O)O [ZOFENOPRIL],> 10,> 10,> 10,> 10,> 10,> 10,> 10
C[C@]1(O)CC[C@H]2[C@@H]3CCC4=CC(=O)CC[C@]4(C)[C@@]3(F)[C@@H](O)C[C@@]21C [FLUOXYMESTERONE],> 10,0.088,> 10,> 10,0.074,> 10,> 30
CCOC(=O)[N-]c1cn(N2CCOCC2)n[o+]1 [MOLSIDOMINE],> 30,> 30,> 30,> 30,> 30,> 30,> 30
C[C@H](N)[C@H](O)c1cccc(O)c1 [METARAMINOL],> 10,> 10,> 10,> 10,> 10,> 10,> 10
OC(CNCC(O)C1CCc2cc(F)ccc2O1)C1CCc2cc(F)ccc2O1 (stereo not given) [NEBIVOLOL],> 30,> 30,10,24,> 30,1.5,4.5
Nc1nc(/C(=C/CC(=O)O)C(=O)N[C@@H]2C(=O)N3C(C(=O)O)=CCS[C@H]23)cs1 [CEFTIBUTEN],> 30,> 30,> 30,> 30,> 30,> 30,> 30
CO[C@@H]1[C@@H](O[C@@H]2O[C@H](C)[C@@H](O[C@H]3C[C@@](C)(O)[C@@H](OC(=O)CC(C)C)[C@H](C)O3)[C@H](N(C)C)[C@H]2O)[C@@H](CC=O)C[C@@H](C)[C@@H](O)/C=C/C=C/C[C@@H](C)OC(=O)C[C@H]1OC(C)=O [JOSAMYCIN],> 10,> 10,> 10,> 10,> 10,> 10,> 10
C=CCC1(C(C)CC)C(=O)NC(=O)NC1=O (stereo not given) [TALBUTAL],> 10,> 10,> 10,> 10,> 10,> 10,> 10

# Reference: ChEMBL document CHEMBL5291721, “A preclinical secondary pharmacology resource illuminates target-adverse drug reaction associations of marketed drugs” (Nat Commun, 2023)
